Patent publication US11311593B2, “Root extracts from plants of the Morus genus and uses of same” (PLANT ADVANCED TECHNOLOGIES PAT, priority 2017, dated 2022)

Key:
fungal tyrosinase = assay: Anti-tyrosinase inhibiting activity, L-tyrosine as substrate, dopachrome at 475 nm; assay type: biochemical
Method: Morus alba plants were cultivated aeroponically for 8 weeks with a 15/10/30 (N/P/K) culture medium and with an electroconductivity in the range 1.0 and 1.2 mS/cm. The roots were chopped, dried, crushed and macerated in pure ethanol in a ratio of 1 mL of ethanol for 20 mg dry matter in accordance with the protocol described in Example 1. The sample was centrifuged at 21000 g for 10 minutes in order to separate the solid material. The anti-tyrosinase inhibiting activity of the supernatant was measured using L-tyrosine as the substrate. Tyrosinase catalyzes the conversion of L-tyrosine to dopaquinone, which is spontaneously converted into dopachrome. This latter absorbs strongly in the visible range of the electromagnetic spectrum (at 475 nm). The activity of the tyrosinase was measured by following the enzymatic conversion of the colorless L-tyrosine into orange dopachrome with the aid of a microplate reader.
The anti-tyrosinase activity of the supernatant was measured by mixing the following components: 150 μL of the solution of L-tyrosine (1.5 mM) in 50 mM sodium phosphate buffer, pH 6.8; 40 μL of supernatant diluted 2- to 800-fold in ethanol was tested as the inhibitor solution. The enzymatic conversion was initialized by adding a volume of 10 μL of fungal tyrosinase (0.2 mg/mL in a 50 mM sodium phosphate buffer, pH 6.8). The “control” experiment was carried out in the same manner, replacing the supernatant with pure ethanol.
Two root extracts of Morus alba were prepared in accordance with the protocol described in Example 1. The measurement of the anti-tyrosinase inhibiting activity was carried out in accordance with the protocol described in Example 2.1 with 40 μL of each of the two extracts diluted 100-fold or 200-fold in pure ethanol.
The measurement of the anti-tyrosinase inhibiting activity was carried out in accordance with the protocol described in Example 2.1.

hyaluronidase = assay: Target Binding affinity test for hyaluronidase; conditions: ligands in non-stimulated M. alba root extract; moracenin B = reference ligand
Method: A root extract of Morus Alba was prepared in accordance with the protocol described in Example 2.1. The Target Binding® method used was that of Example 2.3 which is described in patent application FR 1 670 545. The experimental protocol was as follows: The target, a 5 mg/mL solution of hyaluronidase, was prepared by dissolving powdered lyophilized enzyme in 50 mM sodium phosphate, with a pH of 7.0. The extract corresponded to the supernatant obtained in accordance with Example 2.1. It could optionally be centrifuged once again before use, at 21000 g for 15 min, in order to eliminate the solid particles before use. A reference sample was also prepared by diluting the sample 10-fold in a solution of water and a quarter of the volume of acetonitrile.
1. Preconditioning step—Wells with a filtering membrane were preconditioned with a volume of 500 μL of a solution of 50 mM sodium phosphate, at a pH of 7.0 which was passed through the membrane by centrifuging at 14000 g for 60 seconds.
2. Binding step—The hyaluronidase preparation (5 mg/mL) was mixed with 7.5 μL of the root extract for 5 min in a plastic Eppendorf tube.
3. Washing step—the mixture of the enzyme and the root extract was deposited in a well that had been preconditioned in the preconditioning step, then centrifuged at 14000 g until most of the solvent had been eliminated. The enzyme-ligand complexes remained on the surface of the membrane of the filter then were re-suspended in a volume of 100 μL of the same solution of 50 mM sodium phosphate at a pH of 7.0, and centrifuged at 14000 g until the solvent had been eliminated. This procedure was repeated three times and eliminated all of the compounds that were not bound to the enzyme. 4. Separation step—The enzyme-ligand complexes retained in the filter were re-suspended in a volume of 10 μL of ultra-pure water then mixed with a volume of 40 μL of acetonitrile in order to denature and precipitate the enzyme and at the same time to liberate the ligands. The mixture was centrifuged at 21000 g for 10 min in order to separate the precipitate from the supernatant. 5. Analysis step—Said supernatant was analyzed by liquid phase chromatography coupled to a mass spectrometer, also known by the acronym UPLC-MS. The reference sample was also analyzed in the same manner, using the same analytical conditions.
The UPLC-MS analysis was carried out in accordance with the protocol described in Example 1.

Structure (SMILES): CC(C)=CCc1c(O)ccc(C(=O)[C@@H]2CC(C)=C[C@H](c3c(O)cc(O)c4c(=O)c(CC=C(C)C)c(-c5ccc(O)cc5O)oc34)[C@H]2c2ccc(O)cc2O)c1O [Moracenin A, moracenin A]
- % inhibition of tyrosinase (fungal tyrosinase; purified compound, 2.5 μM): 18.9%
- % inhibition of tyrosinase (fungal tyrosinase; purified compound, 5 μM): 27.7%
- % inhibition of tyrosinase (fungal tyrosinase; purified compound, 20 μM): 59.0%
- Relative affinity (RA) for hyaluronidase (hyaluronidase): 1.9

Structure (SMILES): CC(C)=CCc1c(-c2ccc(O)cc2O)oc2c([C@H]3C=C(C)C[C@H](C(=O)c4ccc(O)cc4O)[C@@H]3c3ccc(O)cc3O)c(O)cc(O)c2c1=O [Moracenin B, moracenin B]
- % inhibition of tyrosinase (fungal tyrosinase; purified compound, 2.5 μM): 22.6%
- % inhibition of tyrosinase (fungal tyrosinase; purified compound, 5 μM): 33.5%
- % inhibition of tyrosinase (fungal tyrosinase; purified compound, 20 μM): 69.7%
- Relative affinity (RA) for hyaluronidase (hyaluronidase): 1.0

Structure (SMILES): CC(C)=CCc1c(O)ccc(C(=O)C2C(c3ccc(O)cc3O)CC3(C)CC2c2c(O)cc(-c4cc5ccc(O)cc5o4)cc2O3)c1O (centres unmarked) [Wittiorumin F, wittiorumin F]
- rank of tyrosinase inhibiting activity among the 4 purified compounds (in words) (fungal tyrosinase; 2.5, 5 and 20 μM): best inhibiting activity
- % inhibition of tyrosinase (fungal tyrosinase; purified compound, 2.5 μM): 35.7%
- % inhibition of tyrosinase (fungal tyrosinase; purified compound, 5 μM): 52.9%
- % inhibition of tyrosinase (fungal tyrosinase; purified compound, 20 μM): 75.1%
- inhibition of tyrosinase (fungal tyrosinase; purified compound, 3.2 mg/L): 52.9%
- Relative affinity (RA) for hyaluronidase (hyaluronidase): 2.1
